Among the data in ChEMBL document CHEMBL4321844, “Rational Design and Optimization of a Novel Class of Macrocyclic Apoptosis Signal-Regulating Kinase 1 Inhibitors” (J Med Chem, 2019) are Kp uu values, retold here.

A short description of the data set: Unbound brain to plasma concentration ratio, Kp of the compound in rat at 1 mg/kg, iv for 4 hrs by LC-MS/MS analysis. The data set is classed as ADME, organism-based. Particulars: brain and plasma, read-out: K(p,uu,brain).

The structures appear in SMILES notation. Some results are limits rather than exact numbers.

In the case of `Cc1cn(-c2ccc3c(c2)C(=O)Nc2cccc(n2)-c2nncn2CCCCO3)cn1`, the Kp uu at 4 h is < 0.1.
The value for `C[C@@H]1CCOc2cc(F)ccc2C(=O)Nc2cccc(n2)-c2nncn2C1` was 0.17; that for `CN(C)CCn1cc(-c2ccc3c(c2)C(=O)Nc2cccc(n2)-c2nncn2CCCCO3)cn1` was 1.
The value for `C[C@@H]1CCOc2cc(F)c(-c3cnn(CCN(C)C)c3)cc2C(=O)Nc2cccc(n2)-c2nncn2C1` was < 0.1; that for `C[C@H]1CCCOc2cc(F)ccc2C(=O)Nc2cccc(n2)-c2nncn21` was 0.09.
